Experimental data taken from patent US10669261B2, “Heteroarylhydroxypyrimidinones as agonists of the APJ receptor” (BRISTOL-MYERS SQUIBB COMPANY, priority 2015, dated 2020).
pEC50: −log10 of the molar value.

What follows are molecules tested against T1, human APJ receptor (Homo sapiens, UniProt P35414) (assay: Intracellular cAMP accumulation assay (APJ hcAMP, HTRF)). Conditions: HEK293 cells stably expressing human APJ receptor; inhibition of forskolin-mediated cAMP production; stated at end of example; read-out: Human APJ cAMP Potency Range.
T1 construct: expressed in transfected cells
T1 sequence (P35414 1-380): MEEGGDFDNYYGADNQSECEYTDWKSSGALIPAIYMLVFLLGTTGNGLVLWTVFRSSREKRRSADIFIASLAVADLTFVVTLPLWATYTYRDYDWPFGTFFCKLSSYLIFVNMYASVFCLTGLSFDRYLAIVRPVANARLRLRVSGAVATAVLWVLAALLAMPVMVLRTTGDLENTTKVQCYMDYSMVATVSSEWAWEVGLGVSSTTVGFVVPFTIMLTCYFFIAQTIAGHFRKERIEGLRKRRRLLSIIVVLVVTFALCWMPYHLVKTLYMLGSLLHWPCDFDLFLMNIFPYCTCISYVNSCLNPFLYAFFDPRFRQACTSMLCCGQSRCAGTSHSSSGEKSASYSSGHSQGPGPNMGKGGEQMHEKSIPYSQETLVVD
Assay type: cell-based
Procedure, shortened: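 Inhibition of forskolin (2 μM)-driven cAMP, with […], measured by HTRF after 30 min room-temperature compound exposure of stably transfected HEK293 cells. cAMP read from a standard curve; variable-slope fit gives EC50, and maximal inhibition is normalised to (Pyr1)apelin-13 as 100%.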
Work on CCCCc1nc(O)c(-c2nnc(Cc3noc4ccccc34)o2)c(=O)n1[C@@H](CC)c1ccccc1 [Example 74, (S)-5-(5-(Benzo[d]isoxazol-3-ylmethyl)-1,3,4-oxadiazol-2-yl)-2-butyl-6-hydroxy-3-(1-phenylpropyl)pyrimidin-4(3H)-one] yielded a pEC50 of 8.00 to 11.00.

Same assay, conditions: Table 1; HEK293 cells stably expressing human APJ receptor; read-out: hAPJ cAMP EC50 Potency range
COc1cccc(OC)c1-n1c(CCC2CC2)nc(=O)c(-c2nnc(Cc3ccc(Cl)cn3)o2)c1O [Example 59, 5-{5-[(5-chloropyridin-2-yl)methyl]-1,3,4-oxadiazol-2-yl}-2-(2-cyclopropylethyl)-1-(2,6-dimethoxyphenyl)-6-hydroxy-1,4-dihydropyrimidin-4-one] was tested, and the pEC50 was 8.00 to 11.00.
Molecule COc1cccc(OC)c1-n1c(COC(C)C)nc(=O)c(-c2nnc(Cc3ccc(Cl)cc3F)o2)c1O [Example 60, 5-{5-[(4-chloro-2-fluorophenyl)methyl]-1,3,4-oxadiazol-2-yl}-1-(2,6-dimethoxyphenyl)-6-hydroxy-2-[(propan-2-yloxy)methyl]-1,4-dihydropyrimidin-4-one] has a pEC50 of 8.00 to 11.00.
For COc1cccc(OC)c1-n1c(CCC2CC2)nc(=O)c(-c2nnc(Cc3ccc(F)cn3)o2)c1O [Example 61, 2-(2-cyclopropylethyl)-1-(2,6-dimethoxyphenyl)-5-{5-[(5-fluoropyridin-2-yl)methyl]-1,3,4-oxadiazol-2-yl}-6-hydroxy-1,4-dihydropyrimidin-4-one], the pEC50 was 8.00 to 11.00.
COc1cccc(OC)c1-n1c(C2CCCC2)nc(=O)c(-c2nnc(Cn3ccccc3=O)o2)c1O [Example 62, 2-cyclopentyl-1-(2,6-dimethoxyphenyl)-6-hydroxy-5-{5-[(2-oxo-1,2-dihydropyridin-1-yl)methyl]-1,3,4-oxadiazol-2-yl}-1,4-dihydropyrimidin-4-one] showed a pEC50 of 8.00 to 11.00.
COc1cccc(OC)c1-n1c(C2CCCC2)nc(=O)c(-c2nnc(Cc3ccc(Cl)nc3)o2)c1O [Example 63, 5-{5-[(6-chloropyridin-3-yl)methyl]-1,3,4-oxadiazol-2-yl}-2-cyclopentyl-1-(2,6-dimethoxyphenyl)-6-hydroxy-1,4-dihydropyrimidin-4-one] gave a pEC50 of 8.00 to 11.00.
COc1cccc(OC)c1-n1c(C2CCCC2)nc(=O)c(-c2nnc(CN3CCCC3=O)o2)c1O [Example 64, 2-cyclopentyl-1-(2,6-dimethoxyphenyl)-6-hydroxy-5-{5-[(2-oxopyrrolidin-1-yl)methyl]-1,3,4-oxadiazol-2-yl}-1,4-dihydropyrimidin-4-one] showed a pEC50 of 8.00 to 11.00.
For COc1cccc(OC)c1-n1c(C2CCCC2)nc(=O)c(-c2nnc(Cc3csc(C)n3)o2)c1O [Example 65, 2-cyclopentyl-1-(2,6-dimethoxyphenyl)-6-hydroxy-5-{5-[(2-methyl-1,3-thiazol-4-yl)methyl]-1,3,4-oxadiazol-2-yl}-1,4-dihydropyrimidin-4-one], the pEC50 was 8.00 to 11.00.
With COc1cccc(OC)c1-n1c(C2CCCC2)nc(=O)c(-c2nnc(Cc3ccc(Cl)cn3)o2)c1O [Example 66, 5-{5-[(5-chloropyridin-2-yl)methyl]-1,3,4-oxadiazol-2-yl}-2-cyclopentyl-1-(2,6-dimethoxyphenyl)-6-hydroxy-1,4-dihydropyrimidin-4-one] the pEC50 was 8.00 to 11.00.
In the case of COc1cccc(OC)c1-n1c(C2CCCC2)nc(=O)c(-c2nnc(Cc3ccc(F)cn3)o2)c1O [Example 67, 2-cyclopentyl-1-(2,6-dimethoxyphenyl)-5-{5-[(5-fluoropyridin-2-yl)methyl]-1,3,4-oxadiazol-2-yl}-6-hydroxy-1,4-dihydropyrimidin-4-one], the pEC50 was 8.00 to 11.00.
With COc1cccc(OC)c1-n1c(C2CCCC2)nc(=O)c(-c2nnc(Cc3ccc(C)nc3)o2)c1O [Example 68, 2-cyclopentyl-1-(2,6-dimethoxyphenyl)-6-hydroxy-5-{5-[(6-methylpyridin-3-yl)methyl]-1,3,4-oxadiazol-2-yl}-1,4-dihydropyrimidin-4-one] the pEC50 was 8.00 to 11.00.
COc1cccc(OC)c1-n1c(C2CCCC2)nc(=O)c(-c2nnc(Cc3ncc(Cl)cc3F)o2)c1O [Example 69, 5-{5-[(5-chloro-3-fluoropyridin-2-yl)methyl]-1,3,4-oxadiazol-2-yl}-2 cyclopentyl-1-(2,6-dimethoxyphenyl)-6-hydroxy-1,4-dihydropyrimidin-4-one] gave a pEC50 of 8.00 to 11.00.
COc1cccc(OC)c1-n1c(C2CCC2)nc(=O)c(-c2nnc(Cc3ccc(Cl)cn3)o2)c1O [Example 70, 5-{5-[(5-chloropyridin-2-yl)methyl]-1,3,4-oxadiazol-2-yl}-2-cyclobutyl-1-(2,6-dimethoxyphenyl)-6-hydroxy-1,4-dihydropyrimidin-4-one] gave a pEC50 of 8.00 to 11.00.
With COc1cccc(OC)c1-n1c(C2CCC2)nc(=O)c(-c2nnc(Cc3ncc(Cl)cc3F)o2)c1O [Example 71, 5-{5-[(5-chloro-3-fluoropyridin-2-yl)methyl]-1,3,4-oxadiazol-2-yl}-2-cyclobutyl-1-(2,6-dimethoxyphenyl)-6-hydroxy-1,4-dihydropyrimidin-4-one] the pEC50 was 8.00 to 11.00.
COc1cccc(OC)c1-n1c(C2CCC2)nc(=O)c(-c2nnc(CN3CCCC3=O)o2)c1O [Example 72, 2-cyclobutyl-1-(2,6-dimethoxyphenyl)-6-hydroxy-5-{5-[(2-oxopyrrolidin-1-yl)methyl]-1,3,4-oxadiazol-2-yl}-1,4-dihydropyrimidin-4-one] was tested, and the pEC50 was 8.00 to 11.00.
COc1cccc(OC)c1-n1c(C2CCC2)nc(=O)c(-c2nnc(Cc3csc(C)n3)o2)c1O [Example 73, 2-cyclobutyl-1-(2,6-dimethoxyphenyl)-6-hydroxy-5-{5-[(2-methyl-1,3-thiazol-4-yl)methyl]-1,3,4-oxadiazol-2-yl}-1,4-dihydropyrimidin-4-one] was tested, and the pEC50 was 8.00 to 11.00.

Same assay, conditions: Table 2; HEK293 cells stably expressing human APJ receptor; read-out: hAPJ cAMP EC50 Potency range
CCCCc1nc(O)c(-c2nnc(Cc3noc4ccccc34)o2)c(=O)n1[C@@H](C)c1ccccc1 [Example 75, 5-{5-[(1,2-benzoxazol-3-yl)methyl]-1,3,4-oxadiazol-2-yl}-2-butyl-6-hydroxy-3-[(1S)-1-phenylethyl]-3,4-dihydropyrimidin-4-one] showed a pEC50 of 7.00 to 8.00.
Work on CCCCc1nc(O)c(-c2nnc(Cc3csc(C)n3)o2)c(=O)n1[C@@H](C)c1ccccc1 [Example 76, 2-butyl-6-hydroxy-5-{5-[(2-methyl-1,3-thiazol-4-yl)methyl]-1,3,4-oxadiazol-2-yl}-3-[(1S)-1-phenylethyl]-3,4-dihydropyrimidin-4-one] yielded a pEC50 of 8.00 to 11.00.
In the case of CCCCc1nc(O)c(-c2nnc(Cc3ccc(Cl)cc3)o2)c(=O)n1[C@@H](C)C1CC1 [Example 77, 2-butyl-5-{5-[(4-chlorophenyl)methyl]-1,3,4-oxadiazol-2-yl}-3-[(1S)-1-cyclopropylethyl]-6-hydroxy-3,4-dihydropyrimidin-4-one], the pEC50 was 6.52 to 7.00.
CCCCc1nc(O)c(-c2nnc(Cc3noc4ccccc34)o2)c(=O)n1[C@H](C)c1ccccc1OC [Example 78, 5-{5-[(1,2-benzoxazol-3-yl)methyl]-1,3,4-oxadiazol-2-yl}-2-butyl-6-hydroxy-3-[(1R)-1-(2-methoxyphenyl)ethyl]-3,4-dihydropyrimidin-4-one] gave a pEC50 of 7.00 to 8.00.
CCCCc1nc(O)c(-c2nnc(Cc3csc(C)n3)o2)c(=O)n1[C@H](C)c1ccccc1OC [Example 79, 2-butyl-6-hydroxy-3-[(1R)-1-(2-methoxyphenyl)ethyl]-5-{5-[(2-methyl-1,3-thiazol-4-yl)methyl]-1,3,4-oxadiazol-2-yl}-3,4-dihydropyrimidin-4-one] gave a pEC50 of 8.00 to 11.00.
Molecule CCCCc1nc(O)c(-c2nnc(Cc3csc(C)n3)o2)c(=O)n1[C@H](C)C1CC1 [Example 80, 2-butyl-3-[(1R)-1-cyclopropylethyl]-6-hydroxy-5-{5-[(2-methyl-1,3-thiazol-4-yl)methyl]-1,3,4-oxadiazol-2-yl}-3,4-dihydropyrimidin-4-one] has a pEC50 of 6.52 to 7.00.
CCCCc1nc(O)c(-c2nnc(Cc3ccc(Cl)cc3)o2)c(=O)n1[C@H](C)c1ccccc1OC [Example 81, 2-butyl-5-{5-[(4-chlorophenyl)methyl]-1,3,4-oxadiazol-2-yl}-6-hydroxy-3-[(1R)-1-(2-methoxyphenyl)ethyl]-3,4-dihydropyrimidin-4-one] showed a pEC50 of 7.00 to 8.00.
For CCCCc1nc(O)c(-c2nnc(Cc3csc(C)n3)o2)c(=O)n1[C@H](C)c1ccccc1 [Example 82, 2-butyl-6-hydroxy-5-{5-[(2-methyl-1,3-thiazol-4-yl)methyl]-1,3,4-oxadiazol-2-yl}-3-[(1R)-1-phenylethyl]-3,4-dihydropyrimidin-4-one], the pEC50 was 7.00 to 8.00.
CCCCc1nc(O)c(-c2nnc(Cc3ccc(Cl)cc3)o2)c(=O)n1[C@H](C)c1ccccc1 [Example 83, 2-butyl-5-{5-[(4-chlorophenyl)methyl]-1,3,4-oxadiazol-2-yl}-6-hydroxy-3-[(1R)-1-phenylethyl]-3,4-dihydropyrimidin-4-one] gave a pEC50 of 7.00 to 8.00.
CCCCc1nc(O)c(-c2nnc(Cc3ccc(Cl)cc3)o2)c(=O)n1[C@@H](CC)c1ccccc1 [Example 84, 2-butyl-5-{5-[(4-chlorophenyl)methyl]-1,3,4-oxadiazol-2-yl}-6-hydroxy-3-[(1S)-1-phenylpropyl]-3,4-dihydropyrimidin-4-one] gave a pEC50 of 7.00 to 8.00.
Molecule CCCCc1nc(O)c(-c2nnc(Cc3csc(C)n3)o2)c(=O)n1[C@@H](CC)c1ccccc1 [Example 85, 2-butyl-6-hydroxy-5-{5-[(2-methyl-1,3-thiazol-4-yl)methyl]-1,3,4-oxadiazol-2-yl}-3-[(1S)-1-phenylpropyl]-3,4-dihydropyrimidin-4-one] has a pEC50 of 8.00 to 11.00.
